Measurements as given in patent US20250092010A1, “DIHYDRO-2H-ISOINDOLE ESTER COMPOUND” (Shanghai Maius Pharmaceutical Co. Ltd., priority 2021, published 2025).

Legend:
[1] = Pharmacokinetic assays after oral gavage administration to rats; assay type: in vivo, male SD rats; parameters: Tmax / AUC(0-∞): concentration or dose not given beside the values; AUMC(0-t) / AUMC(0-∞): unit not given here; settings: for average retention time / time to peak concentration / AUC(0-∞) / AUMC(0-t) / AUMC(0-∞) / CLz/F / Cmax / MRT(0-t) / MRT(0-∞) / Tmax / VRT(0-t) / VRT(0-∞) / t½z / AUC(0-t): active metabolite; for AUC value of the active metabolite equivalent to % of that of the existing drugs: existing drugs administered at the same molar amount; for AUC(0-∞) / AUMC(0-t) / AUMC(0-∞) / CLz/F / Cmax / MRT(0-t) / MRT(0-∞) / Tmax / VRT(0-t) / VRT(0-∞) / t½z / AUC(0-t): plasma, oral gavage, male SD rats; for AUC(0-t): suspension in 0.5% CMC-Na
Procedure: Instruments: ultra high performance liquid chromatography (Acquity UPLC, Waters) system; triple quadrupole mass spectrometer (Qtrap 5500, Sciex); high-speed refrigerated centrifuge (5430R, Eppendorf).
Chromatography Condition: Column: 2.1×50 mm (1.7 μm, BEH C18, Waters); Column Temperature: 45° C.; Mobile Phase: 0.1% aqueous solution of formic acid (A)/acetonitrile; Gradient: see the table below: […]
Mass Spectrometry Condition: Mode: positive ion multiple reaction monitoring (MRM); Curtain Gas: 45 psi; Gas 1:45 psi; Gas 2:45 psi; Ion Source Temperature: 500° C.; Ion Source Voltage: 5000 V. Precursor ions (Q1), product ions (Q3) and collision energy (CE) of some compounds are listed in the table below:
Experimental Animals: male SD rats, 6 in each group, weighing 200-220 grams, fasting overnight before experimentation.
Preparation of Drugs: lenalidomide, as a reference drug, and the test compounds (Compounds 1-10) were accurately weighed and dispensed in 0.5% CMC-Na solutions, resulting in suspensions.
Drug Administration to and Blood Collection from Animals: the drugs were oral gavage administered to the rats, and 100-μl blood samples were taken before administration and 10 min, 20 min, 40 min, 1 h, 1.5 h, 2 h, 3 h, 5 h, 8 h, 12 h, 21 h, 24 h and 30 h after administration. Each sample was placed in an ice bath, centrifuged for plasma collection, frozen and stored.
Plasma drug concentration Data and Calculation of Pharmacokinetic Parameters: Plasma drug concentration data was processed using MultiQuan 3.0 (Sciex), and pharmacokinetic parameters were calculated using DAS 2.0 software. Plasma drug concentrations were measured in ug/L.

[2] = patients, cited from earlier work

| Structure (SMILES) | average retention time [1] [h] | time to peak concentration [1] [h] | AUC value of the active metabolite equivalent to % of that of the existing drugs [1] [%] | AUC(0-∞) [1] [ng·h/mL] | AUMC(0-t) [1] | AUMC(0-∞) [1] | CLz/F [1] [mL/min/kg] | Cmax [1] [ng/mL] | MRT(0-t) [1] [h] | MRT(0-∞) [1] [h] | Tmax [1] [h] | VRT(0-t) [1] [h^2] | VRT(0-∞) [1] | t½z [1] [h] | AUC(0-t) [1] [ng·h/mL] | myelosuppression grade ([2]; 50 mg per day, 28th day of treatment) | maximum tolerated dose (MTD) ([2]; clinical study) [mg per day] |
| --- | --- | --- | --- | --- | --- | --- | --- | --- | --- | --- | --- | --- | --- | --- | --- | --- | --- |
| Cc1oc(=O)oc1COC(=O)Nc1cccc2c1CN(C1CCC(=O)NC1=O)C2=O (centres unmarked) [Compound 6] | 8.6 | 7 | 61 | 5229.3 ± 755.1 | 44683.6 ± 4956.6 | 45199.7 ± 4922.6 | 98.3 ± 17 | 405.4 ± 89.8 | 8.6 ± 0.6 | 8.7 ± 0.6 | 7 ± 1.5 | 20 ± 2.5 | 21.8 ± 2.8 h^2 | 2.9 ± 0.4 | 5217 ± 754.8 | – | – |
| CCCCCCCCCCCCCCCCCCOC(=O)Nc1cccc2c1CN(C1CCC(=O)NC1=O)C2=O (centres unmarked) [Compound 9] | – | – | – | 456 ± 48.0 | 3126 ± 298.1 | 3360 ± 318.6 | 70 ± 16.7 | 95.6 ± 22.2 | 3.5 ± 0.6 | 3.6 ± 0.7 | 4.1 ± 0.8 | 10 ± 1.5 | 10.2 ± 1.5 h^2 | 3.0 ± 0.4 | 402.5 ± 51.6 | – | – |
| Nc1cccc2c1CN(C1CCC(=O)NC1=O)C2=O (centres unmarked) [reference drug, lenalidomide] | – | – | – | – | – | – | – | – | – | – | – | – | – | – | – | Grade 3 myelosuppression | 25 |
| CCCCCCCCCCCOC(=O)Nc1cccc2c1CN(C1CCC(=O)NC1=O)C2=O (centres unmarked) [Compound 8] | – | – | – | 421.5 ± 55.6 | 3596 ± 401.3 | 3689 ± 411.6 | 63.3 ± 15 | 105.3 ± 24.1 | 3.8 ± 0.5 | 3.9 ± 0.5 | 3.8 ± 1.1 | 9.8 ± 1.5 | 9.9 ± 1.6 h^2 | 2.9 ± 0.3 | 489.4 ± 50.3 | – | – |
| CCCCCCCCOC(=O)Nc1cccc2c1CN(C1CCC(=O)NC1=O)C2=O (centres unmarked) [Compound 7] | – | – | – | 584.3 ± 50.3 | 3965 ± 415.1 | 4123 ± 446.1 | 68.3 ± 18.3 | 135 ± 23.0 | 3.8 ± 0.7 | 3.8 ± 0.8 | 3.5 ± 0.8 | 10 ± 1.3 | 10.5 ± 1.3 h^2 | 3.1 ± 0.2 | 503.2 ± 42.6 | – | – |
| CC(C)OC(=O)Nc1cccc2c1CN(C1CCC(=O)NC1=O)C2=O (centres unmarked) [Compound 1] | 4.5 | 0.8 | 45 | 3889.6 ± 435.6 | 32705.8 ± 3125.3 | 33484.2 ± 3040.7 | 71.7 ± 17 | 543.6 ± 68.5 | 4.5 ± 0.7 | 4.6 ± 0.6 | 0.8 ± 0.4 | 13 ± 2.2 | 14.3 ± 2.1 h^2 | 2.8 ± 0.3 | 3822 ± 424.5 | – | – |
| CCC(CC)COC(=O)Nc1cccc2c1CN(C1CCC(=O)NC1=O)C2=O (centres unmarked) [Compound 10] | – | – | – | 1765 ± 226.3 | 13691 ± 587.2 | 14002 ± 589.6 | 65 ± 13 | 163.2 ± 26.4 | 5.2 ± 0.7 | 5.2 ± 0.7 | 5 ± 0.9 | 14 ± 2.1 | 14.2 ± 2.2 h^2 | 3.1 ± 0.5 | 1568 ± 205.4 | – | – |
| CCCCCCOC(=O)Nc1cccc2c1CN(C1CCC(=O)NC1=O)C2=O (centres unmarked) [Compound 5] | – | – | – | 1257 ± 209.6 | 8749 ± 352.6 | 8954 ± 336.4 | 70 ± 15 | 158 ± 31.1 | 4 ± 0.5 | 1.1 ± 0.6 | 4 ± 0.5 | 11 ± 1.8 | 11.8 ± 2.1^ h^2 | 3.0 ± 0.3 | 1022 ± 214.5 | – | – |
